Measurements published in PubChem BioAssay (NCI).
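Cells were grown in 96-well plates and exposed to each compound for 48 hours at five concentrations; endpoints were interpolated linearly between bracketing concentrations, or set to the highest concentration if not reached. TGI marks complete inhibition of growth.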

Key:
Experiment in all cases: growth of human tumour cells (NCI), 48 h
[1] = tested on: 786-0 renal
[2] = tested on: A498 renal
[3] = tested on: A549 NSCLC
[4] = tested on: ACHN renal
[5] = tested on: CAKI-1 renal
[6] = tested on: CCRF-CEM leukemia
[7] = tested on: DLD-1 colon
[8] = tested on: DMS 114 small cell lung
[9] = tested on: DMS 273 small cell lung
[10] = tested on: EKVX NSCLC
[11] = tested on: HCC-2998 colon
[12] = tested on: HCT-116 colon
[13] = tested on: HCT-15 colon
[14] = tested on: HL-60(TB) leukemia
[15] = tested on: HOP-92 NSCLC
[16] = tested on: HT29 colon
[17] = tested on: IGROV1 ovarian
[18] = tested on: K-562 leukemia
[19] = tested on: KM20L2 colon
[20] = tested on: LOX IMVI melanoma
[21] = tested on: LXFL 529 NSCLC
[22] = tested on: M14 melanoma
[23] = tested on: MALME-3M melanoma
[24] = tested on: MOLT-4 leukemia
[25] = tested on: NCI-H226 lung
[26] = tested on: NCI-H23 lung
[27] = tested on: NCI-H460 lung
[28] = tested on: NCI-H522 lung
[29] = tested on: OVCAR-3 ovarian
[30] = tested on: OVCAR-4 ovarian
[31] = tested on: OVCAR-5 ovarian
[32] = tested on: OVCAR-8 ovarian
[33] = tested on: RPMI-8226 leukemia
[34] = tested on: RXF 393 renal
[35] = tested on: SF-268 CNS
[36] = tested on: SF-295 CNS
[37] = tested on: SF-539 CNS
[38] = tested on: SK-MEL-2 melanoma
[39] = tested on: SK-MEL-28 melanoma
[40] = tested on: SK-MEL-5 melanoma
[41] = tested on: SN12C renal
[42] = tested on: SNB-19 CNS
[43] = tested on: SNB-75 CNS
[44] = tested on: SNB-78 CNS
[45] = tested on: SR leukemia
[46] = tested on: SW-620 colon
[47] = tested on: TK-10 renal
[48] = tested on: U251 CNS
[49] = tested on: UACC-257 melanoma
[50] = tested on: UACC-62 melanoma
[51] = tested on: UO-31 renal
[52] = tested on: XF 498 CNS
[53] = tested on: BT-549 breast
[54] = tested on: COLO 205 colon
[55] = tested on: DU-145 prostate
[56] = tested on: HOP-62 NSCLC
[57] = tested on: HS 578T breast
[58] = tested on: KM12 colon
[59] = tested on: MCF7 breast
[60] = tested on: MDA-MB-231 breast
[61] = tested on: MDA-MB-435
[62] = tested on: MDA-N
[63] = tested on: NCI/ADR-RES ovarian
[64] = tested on: PC-3 prostate
[65] = tested on: SK-OV-3 ovarian
[66] = tested on: T-47D breast
[67] = tested on: M19-MEL melanoma

`Cc1ccc(NC(=O)CC2C(=O)Nc3ccccc3S2(=O)=O)c(C)c1` (stereo not given) showed a TGI [1] of 40.3 µM, a TGI [2] of 31.2 µM and a TGI [3] of 36.8 µM. It also gave a TGI [4] of 39.1 µM, a TGI [5] of 35.9 µM and a TGI [6] of 43.2 µM. For the same compound, the TGI [7] was 43.1 µM, the TGI [8] was 39.2 µM and the TGI [9] was 25.8 µM. For the same compound, the TGI [10] was > 100 µM, the TGI [11] was 30.5 µM and the TGI [12] was 24.9 µM. It also gave a TGI [13] of 30.3 µM, a TGI [14] of 14 µM and a TGI [15] of 31 µM. For the same compound, the TGI [16] was 27.2 µM, the TGI [17] was 28.8 µM and the TGI [18] was 29 µM. The TGI [19] was 26.9 µM, the TGI [20] was 29 µM and the TGI [21] was 41 µM. It also gave a TGI [22] of 26.2 µM, a TGI [23] of 45.9 µM and a TGI [24] of 28.7 µM. The TGI [25] was 35.9 µM, the TGI [26] was 37.2 µM and the TGI [27] was 33.8 µM. It also gave a TGI [28] of 23.6 µM, a TGI [29] of 30.1 µM and a TGI [30] of 41.2 µM. It also gave a TGI [31] of 46.9 µM, a TGI [32] of 34.6 µM and a TGI [33] of 43.4 µM. For the same compound, the TGI [34] was 41 µM, the TGI [35] was 39.6 µM and the TGI [36] was 50.2 µM. The TGI [37] was 30.8 µM, the TGI [38] was 73.8 µM and the TGI [39] was 41.1 µM. For the same compound, the TGI [40] was 19.5 µM, the TGI [41] was 39.3 µM and the TGI [42] was 32.6 µM. For the same compound, the TGI [43] was 38.6 µM, the TGI [44] was 56 µM and the TGI [45] was 19.1 µM. The TGI [46] was 19.5 µM, the TGI [47] was 55 µM and the TGI [48] was 25.8 µM. It also gave a TGI [49] of 55 µM, a TGI [50] of 50.5 µM and a TGI [51] of 39.8 µM. The TGI [52] was 34.8 µM.

`CCC(=O)C(CCN1CCC2(CCCc3ccccc32)CC1)(c1ccccc1)c1ccccc1` was tested, and the TGI [1] was 6.09 µM, the TGI [2] was 6.11 µM and the TGI [3] was 15.6 µM. For the same compound, the TGI [4] was 11.3 µM, the TGI [53] was 3.36 µM and the TGI [5] was 14.5 µM. The TGI [6] was > 100 µM, the TGI [54] was 2.91 µM and the TGI [55] was 11.6 µM. It also gave a TGI [10] of 17.6 µM, a TGI [11] of 7.44 µM and a TGI [12] of 3.22 µM. For the same compound, the TGI [13] was 15.1 µM, the TGI [14] was 5.12 µM and the TGI [56] was 8.91 µM. The TGI [15] was 4.03 µM, the TGI [57] was 7.02 µM and the TGI [16] was 6.01 µM. It also gave a TGI [17] of 10.3 µM, a TGI [58] of 4.64 µM and a TGI [20] of 2.16 µM. The TGI [22] was 4.56 µM, the TGI [23] was 3.76 µM and the TGI [59] was 10.9 µM. It also gave a TGI [60] of 5.78 µM, a TGI [61] of 12.5 µM and a TGI [62] of 10.9 µM. For the same compound, the TGI [25] was 6.58 µM, the TGI [26] was 5.45 µM and the TGI [27] was 9.4 µM. It also gave a TGI [28] of 7.14 µM, a TGI [63] of 14.3 µM and a TGI [29] of 6.67 µM. It also gave a TGI [30] of 18.7 µM, a TGI [31] of 14.7 µM and a TGI [32] of 14 µM. It also gave a TGI [64] of 8.87 µM, a TGI [33] of 2.35 µM and a TGI [34] of 6.18 µM. For the same compound, the TGI [35] was 16.4 µM, the TGI [36] was 4.9 µM and the TGI [37] was 7.3 µM. It also gave a TGI [38] of 4.34 µM, a TGI [39] of 14 µM and a TGI [40] of 2.9 µM. The TGI [65] was 18.2 µM, the TGI [41] was 10.2 µM and the TGI [42] was 20.6 µM. The TGI [43] was > 27.2 µM, the TGI [45] was 5.9 µM and the TGI [46] was 12.9 µM. For the same compound, the TGI [66] was 10.2 µM, the TGI [47] was 11 µM and the TGI [48] was 14 µM. It also gave a TGI [49] of 5.51 µM, a TGI [50] of 10.7 µM and a TGI [51] of 8.66 µM.

For `Cc1cc(C)nc(NS(=O)(=O)c2ccc(NC(=O)c3cccc4c(Nc5ccc(S(=O)(=O)Nc6cc(C)on6)cc5)c5ccccc5nc34)cc2)n1`, the TGI [2] was 68.5 µM, the TGI [4] was > 100 µM and the TGI [6] was 75.7 µM. The TGI [7] was > 100 µM, the TGI [8] was 39.8 µM and the TGI [10] was 75.6 µM. It also gave a TGI [11] of 29.4 µM, a TGI [12] of 84 µM and a TGI [14] of 68.4 µM. The TGI [56] was 45.4 µM, the TGI [16] was 46.7 µM and the TGI [18] was 80.6 µM. It also gave a TGI [58] of 30.4 µM, a TGI [20] of 35.6 µM and a TGI [21] of 35.5 µM. The TGI [22] was 47.5 µM, the TGI [67] was 62.4 µM and the TGI [23] was 44.7 µM. It also gave a TGI [24] of 86.4 µM, a TGI [26] of 42.6 µM and a TGI [27] of 59.9 µM. For the same compound, the TGI [28] was 32.5 µM, the TGI [29] was 38.9 µM and the TGI [30] was 50.2 µM. The TGI [31] was 34 µM, the TGI [34] was 39.6 µM and the TGI [35] was 65.2 µM. It also gave a TGI [37] of 35.7 µM, a TGI [38] of 40 µM and a TGI [39] of 50 µM. For the same compound, the TGI [65] was 75.2 µM, the TGI [41] was 61.8 µM and the TGI [42] was 46.7 µM. The TGI [43] was 48.9 µM, the TGI [44] was > 100 µM and the TGI [45] was 80.3 µM. The TGI [47] was > 100 µM, the TGI [48] was 40.2 µM and the TGI [49] was 47.2 µM. The TGI [50] was 40.9 µM, the TGI [51] was > 100 µM and the TGI [52] was 47.6 µM.

In the case of `O=C(c1nc2ccccc2[nH]c1=O)C(O)c1ccccc1` (stereo not given), the TGI [1] is reported as > 100 µM, the TGI [2] is reported as 99.6 µM and the TGI [3] is reported as > 100 µM. The TGI [4] was > 100 µM, the TGI [5] was > 100 µM and the TGI [6] was > 100 µM. For the same compound, the TGI [54] was > 100 µM, the TGI [7] was > 100 µM and the TGI [8] was > 100 µM. The TGI [9] was > 100 µM, the TGI [10] was > 100 µM and the TGI [11] was > 100 µM. The TGI [12] was > 100 µM, the TGI [13] was > 100 µM and the TGI [14] was > 100 µM. For the same compound, the TGI [56] was > 100 µM, the TGI [15] was > 100 µM and the TGI [16] was > 100 µM. The TGI [17] was > 100 µM, the TGI [18] was > 100 µM and the TGI [58] was > 100 µM. The TGI [19] was > 100 µM, the TGI [20] was > 100 µM and the TGI [21] was > 100 µM. For the same compound, the TGI [22] was > 100 µM, the TGI [67] was > 100 µM and the TGI [23] was > 100 µM. For the same compound, the TGI [24] was > 100 µM, the TGI [25] was > 100 µM and the TGI [26] was > 100 µM. For the same compound, the TGI [27] was > 100 µM, the TGI [28] was > 100 µM and the TGI [29] was > 100 µM. The TGI [30] was > 100 µM, the TGI [31] was > 100 µM and the TGI [32] was > 100 µM. For the same compound, the TGI [33] was > 100 µM, the TGI [35] was > 100 µM and the TGI [36] was > 100 µM. For the same compound, the TGI [37] was > 100 µM, the TGI [38] was > 100 µM and the TGI [39] was > 100 µM. The TGI [40] was > 100 µM, the TGI [65] was > 100 µM and the TGI [41] was > 100 µM. For the same compound, the TGI [42] was > 100 µM, the TGI [44] was > 100 µM and the TGI [45] was > 100 µM. For the same compound, the TGI [46] was > 100 µM, the TGI [47] was > 100 µM and the TGI [48] was > 100 µM. For the same compound, the TGI [49] was > 100 µM, the TGI [50] was > 100 µM and the TGI [51] was > 100 µM.
